As a reminder, the IC50 is the point on the concentration scale where inhibition reaches its midpoint.

Experimental findings from US12336981B2, “Compounds and compositions for the inhibition of NAMPT” (Valo Health, Inc., priority 2010, dated 2025) are described below.

One assay has as its target T1, NAMPT (Homo sapiens, UniProt P43490).
T1 construct: His tag; host or cells: E. coli
The assay is described as follows: Biochemical inhibition assay: NAMPT enzymatic reaction, NMN quantified by mass spectrometry. The settings on record: read-out: Biochem IC50. In outline: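 Inhibition of E. coli-expressed His-tagged human NAMPT, measured as NMN formation by mass spectrometry after a 30 min room-temperature reaction containing 1 μM NAM, 100 μM PRPP and 2.5 mM ATP.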

The next assay relates to A2780 cells. The assay is described as follows: In-vitro cell proliferation assay (SRB), A2780 cells. Format: cell-based. The settings on record: Homo sapiens, A2780, 72 h, A2780 cells, 72 hours, read-out: A2780 IC50. The essentials: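 Proliferation is assessed by sulforhodamine B staining following a 72-hour incubation with compound dilutions containing 0.1% DMSO.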

Molecules are shown by their SMILES. Read-outs that look alike come from different tables or passages of the source. Some results are limits rather than exact numbers.

T1 sequence (P43490 whole entry): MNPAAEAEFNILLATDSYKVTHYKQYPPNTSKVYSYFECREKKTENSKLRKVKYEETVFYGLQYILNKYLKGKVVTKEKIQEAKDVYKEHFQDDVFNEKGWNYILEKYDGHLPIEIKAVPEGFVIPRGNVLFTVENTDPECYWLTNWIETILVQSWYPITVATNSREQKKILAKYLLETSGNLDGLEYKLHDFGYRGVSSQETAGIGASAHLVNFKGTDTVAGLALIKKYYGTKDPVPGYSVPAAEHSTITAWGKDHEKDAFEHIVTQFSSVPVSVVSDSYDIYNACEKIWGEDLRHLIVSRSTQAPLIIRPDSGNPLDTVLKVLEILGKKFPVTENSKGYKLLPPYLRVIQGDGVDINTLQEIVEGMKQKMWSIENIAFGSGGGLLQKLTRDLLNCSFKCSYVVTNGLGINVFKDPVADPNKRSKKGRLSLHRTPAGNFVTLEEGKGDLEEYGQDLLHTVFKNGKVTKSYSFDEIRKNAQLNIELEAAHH

Turning to `COc1ccc2cc(S(=O)(=O)c3ccc(CNC(=O)c4cc5ccncc5o4)cc3)ccc2c1` [N-{[4-(6-methoxynaphthalene-2-sulfonyl)phenyl]methyl}furo[2,3-c]pyridine-2-carboxamide], the figures for the half-inhibitory concentration (IC50) on NAMPT (NAMPT enzymatic assay) and in the assay with A2780 cells (SRB) were 3 nM and 3.6 nM, respectively.
In the same order, the values of `COc1ccc2cc(S(=O)(=O)c3ccc(CNC(=O)c4ccc5nccn5c4)cc3)ccc2c1` [N-{[4-(6-methoxynaphthalene-2-sulfonyl)phenyl]methyl}imidazo[1,2-a]pyridine-6-carboxamide] are 2.7 nM and 1.8 nM.
For `COc1ccc2cc(S(=O)(=O)c3ccc(CNC(=O)c4cc5ccncc5s4)cc3)ccc2c1` [N-{[4-(6-methoxynaphthalene-2-sulfonyl)phenyl]methyl}thieno[2,3-c]pyridine-2-carboxamide], the IC50 at NAMPT (NAMPT enzymatic assay) turned out to be 1.5 nM; in the assay with A2780 cells (SRB), 3.3 nM.
The corresponding values for `COc1cccc(S(=O)(=O)c2ccc(CNC(=O)c3ccc4nccn4c3)cc2)n1` [N-{[4-(6-methoxypyridine-2-sulfonyl)phenyl]methyl}imidazo[1,2-a]pyridine-6-carboxamide] are 5.2 nM and 1.3 nM.
In the same order, the values of `COc1cccc(S(=O)(=O)c2ccc(CNC(=O)c3cnc4nccn4c3)cc2)n1` [N-{[4-(6-methoxypyridine-2-sulfonyl)phenyl]methyl}imidazo[1,2-a]pyrimidine-6-carboxamide] are 2.2 nM and 5.9 nM.
The corresponding values for `Cc1cncc(S(=O)(=O)c2ccc(CNC(=O)c3cnc4[nH]ncc4c3)cc2)n1` [N-{[4-(6-methylpyrazine-2-sulfonyl)phenyl]methyl}-1H-pyrazolo[3,4-b]pyridine-5-carboxamide] are 34.9 nM and 31.2 nM.
Regarding `Cc1cncc(S(=O)(=O)c2ccc(CNC(=O)c3cc4ccncc4o3)cc2)n1` [N-{[4-(6-methylpyrazine-2-sulfonyl)phenyl]methyl}furo[2,3-c]pyridine-2-carboxamide], the concentration for half-maximal inhibition (IC50) at NAMPT (NAMPT enzymatic assay) was found to be 20.9 nM; in the assay on A2780 cells (SRB), 9.7 nM.
The corresponding values for `Cc1cncc(S(=O)(=O)c2ccc(CNC(=O)c3cnc4nccn4c3)cc2)n1` [N-{[4-(6-methylpyrazine-2-sulfonyl)phenyl]methyl}imidazo[1,2-a]pyrimidine-6-carboxamide] are 1 nM and 52.5 nM.
Regarding `Cc1cncc(S(=O)(=O)c2ccc(CNC(=O)c3cc4ccncc4s3)cc2)n1` [N-{[4-(6-methylpyrazine-2-sulfonyl)phenyl]methyl}thieno[2,3-c]pyridine-2-carboxamide], the IC50 was 4.8 nM on NAMPT (NAMPT enzymatic assay) and 5.1 nM with A2780 cells (SRB).
On to `Cc1cccc(S(=O)(=O)c2ccc(CNC(=O)c3cc4ccncc4o3)cc2)n1` [N-{[4-(6-methylpyridine-2-sulfonyl)phenyl]methyl}furo[2,3-c]pyridine-2-carboxamide], for which the results for the IC50 at NAMPT (NAMPT enzymatic assay) and in the assay on A2780 cells (SRB) were 12.8 nM and 12.5 nM, respectively.
As to `Cc1ccc(S(=O)(=O)c2ccc(CNC(=O)c3cnc4[nH]ncc4c3)cc2)cn1` [N-{[4-(6-methylpyridine-3-sulfonyl)phenyl]methyl}-1H-pyrazolo[3,4-b]pyridine-5-carboxamide], the results for the IC50 at NAMPT (NAMPT enzymatic assay) and with A2780 cells (SRB) were 24.1 nM and 21.3 nM, respectively.
For the compound `Cc1ccc(S(=O)(=O)c2ccc(CNC(=O)c3cc4cnccc4[nH]3)cc2)cn1` [N-{[4-(6-methylpyridine-3-sulfonyl)phenyl]methyl}-1H-pyrrolo[3,2-c]pyridine-2-carboxamide], the half-inhibitory concentration (IC50) on NAMPT (NAMPT enzymatic assay) worked out at 55.7 nM; in the assay with A2780 cells (SRB), 13 nM.
Regarding `Cc1ccc(S(=O)(=O)c2ccc(CNC(=O)c3ccc4nccn4c3)cc2)cn1` [N-{[4-(6-methylpyridine-3-sulfonyl)phenyl]methyl}imidazo[1,2-a]pyridine-6-carboxamide], the values for the IC50 on NAMPT (NAMPT enzymatic assay) and in the assay on A2780 cells (SRB) were 21.5 nM and 13.9 nM, respectively.
The corresponding values for `Cc1ccc(S(=O)(=O)c2ccc(CNC(=O)c3cnc4nccn4c3)cc2)cn1` [N-{[4-(6-methylpyridine-3-sulfonyl)phenyl]methyl}imidazo[1,2-a]pyrimidine-6-carboxamide] are 5.9 nM and 55.5 nM.
`Cc1ccc(S(=O)(=O)c2ccc(CNC(=O)c3cc4ccncc4s3)cc2)cn1` [N-{[4-(6-methylpyridine-3-sulfonyl)phenyl]methyl}thieno[2,3-c]pyridine-2-carboxamide]: the IC50 at NAMPT (NAMPT enzymatic assay) came out at 22 nM; with A2780 cells (SRB), 6.3 nM.
For `O=C(NCc1ccc(S(=O)(=O)c2ccccc2)cc1)c1ccc2ncccc2n1` [N-{[4-(benzenesulfonyl)phenyl]methyl}-1,5-naphthyridine-2-carboxamide], the half-inhibitory concentration (IC50) was 875 nM on NAMPT (NAMPT enzymatic reaction) and more than 10000 nM with A2780 cells (SRB assay).
On to `O=C(NCc1ccc(S(=O)(=O)c2ccccc2)cc1)c1ccc2cnccc2n1` [N-{[4-(benzenesulfonyl)phenyl]methyl}-1,6-naphthyridine-2-carboxamide], for which the values for the IC50 at NAMPT (NAMPT enzymatic assay) and with A2780 cells (SRB) were 2850 nM and more than 10000 nM, respectively.
Take `Cn1ncc2cc(C(=O)NCc3ccc(S(=O)(=O)c4ccccc4)cc3)cnc21` [N-{[4-(benzenesulfonyl)phenyl]methyl}-1-methyl-1H-pyrazolo[3,4-b]pyridine-5-carboxamide]: the IC50 at NAMPT (NAMPT enzymatic reaction) is 1730 nM; with A2780 cells (SRB assay), more than 30000 nM.
For the compound `Cn1c(C(=O)NCc2ccc(S(=O)(=O)c3ccccc3)cc2)cc2cnccc21` [N-{[4-(benzenesulfonyl)phenyl]methyl}-1-methyl-1H-pyrrolo[3,2-c]pyridine-2-carboxamide], the half-inhibitory concentration (IC50) is more than 10000 nM at NAMPT (NAMPT enzymatic reaction) and more than 30000 nM with A2780 cells (SRB assay).
Turning to `O=C(NCc1ccc(S(=O)(=O)c2ccccc2)cc1)N1CCc2[nH]cnc2C1` [N-{[4-(benzenesulfonyl)phenyl]methyl}-1H,4H,5H,6H,7H-imidazo[4,5-c]pyridine-5-carboxamide], the 50% inhibitory concentration (IC50) at NAMPT (NAMPT enzymatic reaction) and with A2780 cells (SRB assay) was more than 2000 nM each time.
As for `O=C(NCc1ccc(S(=O)(=O)c2ccccc2)cc1)N1CCc2[nH]ncc2C1` [N-{[4-(benzenesulfonyl)phenyl]methyl}-1H,4H,5H,6H,7H-pyrazolo[4,3-c]pyridine-5-carboxamide], the IC50 at NAMPT (NAMPT enzymatic reaction) and in the assay on A2780 cells (SRB assay) was more than 2000 nM each time.
Consider `O=C(NCc1ccc(S(=O)(=O)c2ccccc2)cc1)c1nc2cnccc2[nH]1` [N-{[4-(benzenesulfonyl)phenyl]methyl}-1H-imidazo[4,5-c]pyridine-2-carboxamide], for which the 50% inhibitory concentration (IC50) was found to be 7060 nM at NAMPT (NAMPT enzymatic reaction) and 5370 nM in the assay with A2780 cells (SRB assay).
The corresponding values for `O=C(NCc1ccc(S(=O)(=O)c2ccccc2)cc1)c1n[nH]c2ncccc12` [N-{[4-(benzenesulfonyl)phenyl]methyl}-1H-pyrazolo[3,4-b]pyridine-3-carboxamide] are 1270 nM and more than 10000 nM.
The corresponding values for `O=C(NCc1ccc(S(=O)(=O)c2ccccc2)cc1)c1cnc2[nH]ncc2c1` [N-{[4-(benzenesulfonyl)phenyl]methyl}-1H-pyrazolo[3,4-b]pyridine-5-carboxamide] are 70 nM and 51 nM.
For the compound `O=C(NCc1ccc(S(=O)(=O)c2ccccc2)cc1)c1cnc2[nH]ccc2c1` [N-{[4-(benzenesulfonyl)phenyl]methyl}-1H-pyrrolo[2,3-b]pyridine-5-carboxamide], the concentration for half-maximal inhibition (IC50) was 1910 nM at NAMPT (NAMPT enzymatic reaction) and more than 30000 nM with A2780 cells (SRB assay).
As to `O=C(NCc1ccc(S(=O)(=O)c2ccccc2)cc1)c1c[nH]c2ccncc12` [N-{[4-(benzenesulfonyl)phenyl]methyl}-1H-pyrrolo[3,2-c]pyridine-3-carboxamide], the concentration for half-maximal inhibition (IC50) at NAMPT (NAMPT enzymatic assay) came out at 1910 nM; in the assay with A2780 cells (SRB), 2060 nM.
`O=C(NCc1ccc(S(=O)(=O)c2ccccc2)cc1)c1cc(-c2ccccn2)n[nH]1` [N-{[4-(benzenesulfonyl)phenyl]methyl}-3-(pyridin-2-yl)-1H-pyrazole-5-carboxamide]: the IC50 at NAMPT (NAMPT enzymatic reaction) amounted to 7430 nM; in the assay on A2780 cells (SRB assay), 23400 nM.
In the same order, the values of `O=C(NCc1ccc(S(=O)(=O)c2ccccc2)cc1)c1cc(-c2cccnc2)no1` [N-{[4-(benzenesulfonyl)phenyl]methyl}-3-(pyridin-3-yl)-1,2-oxazole-5-carboxamide] are 33 nM and more than 30000 nM.
The corresponding values for `O=C(NCc1ccc(S(=O)(=O)c2ccccc2)cc1)c1cc(-c2ccncc2)n[nH]1` [N-{[4-(benzenesulfonyl)phenyl]methyl}-3-(pyridin-4-yl)-1H-pyrazole-5-carboxamide] are 3180 nM and 21600 nM.
The corresponding values for `O=C(NCc1ccc(S(=O)(=O)c2ccccc2)cc1)c1[nH]c2ccncc2c1Br` [N-{[4-(benzenesulfonyl)phenyl]methyl}-3-bromo-1H-pyrrolo[3,2-c]pyridine-2-carboxamide] are 306 nM and 7390 nM.
As for `O=C(NCc1ccc(S(=O)(=O)c2ccccc2)cc1)N1CCc2nocc2C1` [N-{[4-(benzenesulfonyl)phenyl]methyl}-4H,5H,6H,7H-[1,2]oxazolo[4,3-c]pyridine-5-carboxamide], the IC50 at NAMPT (NAMPT enzymatic reaction) and in the assay on A2780 cells (SRB assay) was more than 2000 nM in each case.
Regarding `O=C(NCc1ccc(S(=O)(=O)c2ccccc2)cc1)N1CCc2ncccc2C1` [N-{[4-(benzenesulfonyl)phenyl]methyl}-5,6,7,8-tetrahydro-1,6-naphthyridine-6-carboxamide], the concentration for half-maximal inhibition (IC50) on NAMPT (NAMPT enzymatic reaction) is 544 nM; with A2780 cells (SRB assay) it was more than 2000 nM.
Consider `O=C(NCc1ccc(S(=O)(=O)c2ccccc2)cc1)c1noc(-c2cccnc2)n1` [N-{[4-(benzenesulfonyl)phenyl]methyl}-5-(pyridin-3-yl)-1,2,4-oxadiazole-3-carboxamide], for which the values for the IC50 at NAMPT (NAMPT enzymatic reaction) and with A2780 cells (SRB assay) were 312 nM and more than 30000 nM, respectively.
The corresponding values for `O=C(NCc1ccc(S(=O)(=O)c2ccccc2)cc1)c1cc(-c2cccnc2)[nH]n1` [N-{[4-(benzenesulfonyl)phenyl]methyl}-5-(pyridin-3-yl)-1H-pyrazole-3-carboxamide] are 23 nM and 11800 nM.
